Drawing on patent US20220281831A1, “FUSED-GLUTARIMIDE CRBN LIGANDS AND USES THEREOF” (Kymera Therapeutics, Inc., priority 2019, published 2022), this text covers IC50 for eleven compounds.

As usually defined, the IC50 is the midpoint of a concentration-inhibition curve.

The structures appear in SMILES notation.

The first assay deals with His-tagged CRBN-DDB1 complex (Homo sapiens, UniProt Q96SW2). Kind of assay: Time-Resolved Fluorescence Resonance Energy Transfer (TR-FRET / HTRF) CRBN binding assay, displacement of Cy5-labeled thalidomide. The following applies: His-CRBN-DDB1, Cy5-thalidomide 8 nM, 1 hour room temperature. (In general: Time-resolved FRET reads energy transfer from a long-lived donor to a nearby acceptor.)
Chain of His-tagged CRBN-DDB1 complex (Q96SW2 whole entry): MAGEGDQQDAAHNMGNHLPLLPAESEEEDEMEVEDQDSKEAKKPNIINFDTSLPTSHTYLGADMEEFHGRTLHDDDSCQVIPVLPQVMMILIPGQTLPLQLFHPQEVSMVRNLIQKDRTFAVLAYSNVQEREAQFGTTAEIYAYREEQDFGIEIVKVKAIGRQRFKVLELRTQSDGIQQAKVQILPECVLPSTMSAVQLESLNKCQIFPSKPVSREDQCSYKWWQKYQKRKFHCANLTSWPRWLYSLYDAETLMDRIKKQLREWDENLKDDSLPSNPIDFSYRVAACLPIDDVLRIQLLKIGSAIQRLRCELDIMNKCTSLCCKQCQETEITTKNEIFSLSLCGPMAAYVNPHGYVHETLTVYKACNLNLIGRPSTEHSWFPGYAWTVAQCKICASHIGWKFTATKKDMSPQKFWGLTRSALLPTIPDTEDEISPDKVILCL
Chain of His-tagged CRBN-DDB1 complex (Q16531 whole entry partner): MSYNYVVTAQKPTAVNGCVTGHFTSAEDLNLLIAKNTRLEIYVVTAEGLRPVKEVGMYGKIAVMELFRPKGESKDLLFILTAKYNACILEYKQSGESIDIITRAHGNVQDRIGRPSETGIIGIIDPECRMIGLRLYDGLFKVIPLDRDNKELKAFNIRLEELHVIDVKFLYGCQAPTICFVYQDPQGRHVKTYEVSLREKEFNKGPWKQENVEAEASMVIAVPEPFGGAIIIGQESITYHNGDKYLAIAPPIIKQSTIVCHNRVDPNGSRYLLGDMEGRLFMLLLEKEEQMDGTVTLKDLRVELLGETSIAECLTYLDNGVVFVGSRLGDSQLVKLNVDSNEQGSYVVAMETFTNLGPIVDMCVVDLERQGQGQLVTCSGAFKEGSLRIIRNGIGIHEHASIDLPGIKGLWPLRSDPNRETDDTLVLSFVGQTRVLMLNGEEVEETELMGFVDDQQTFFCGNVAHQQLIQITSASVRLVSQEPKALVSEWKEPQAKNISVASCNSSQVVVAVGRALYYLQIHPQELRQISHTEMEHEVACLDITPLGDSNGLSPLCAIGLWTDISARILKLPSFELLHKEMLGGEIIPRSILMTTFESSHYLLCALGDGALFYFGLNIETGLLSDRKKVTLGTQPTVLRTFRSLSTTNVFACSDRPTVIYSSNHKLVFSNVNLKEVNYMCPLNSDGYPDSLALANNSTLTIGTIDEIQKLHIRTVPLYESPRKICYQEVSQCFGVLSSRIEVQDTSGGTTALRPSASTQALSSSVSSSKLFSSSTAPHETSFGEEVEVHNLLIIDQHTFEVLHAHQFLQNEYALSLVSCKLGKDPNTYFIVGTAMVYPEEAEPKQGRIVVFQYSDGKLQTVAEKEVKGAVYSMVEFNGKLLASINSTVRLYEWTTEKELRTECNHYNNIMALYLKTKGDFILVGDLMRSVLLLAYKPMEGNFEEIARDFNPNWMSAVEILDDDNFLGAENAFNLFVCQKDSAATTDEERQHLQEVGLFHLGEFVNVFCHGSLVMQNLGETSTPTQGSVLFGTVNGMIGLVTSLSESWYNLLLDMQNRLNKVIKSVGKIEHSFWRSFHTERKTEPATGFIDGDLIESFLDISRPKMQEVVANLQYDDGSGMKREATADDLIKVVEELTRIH
In turn, `O=C1NC(=O)c2c(Oc3cccnc3)cccc2C1=O` [Compound I-266] returned an IC50 of 10 to 30 µM.
The same measure, in the same setting: the same measure for `CC(=O)NCc1cccc(Oc2cccc3c2C(=O)NC(=O)C3=O)c1` [Compound I-267]: 10 to 30 µM; for `CC(=O)NCc1cccc(Oc2cccc3c2C(=O)NC(=O)C3)c1` [Compound I-268]: 30 to 100 µM.
The compound `CC(C)(C)OC(=O)NCc1cccc(Oc2cccc3c2C(=O)NC(=O)C3)c1` [Compound I-273] registered an IC50 of 10 to 30 µM.
`O=C1Cc2cccc(Oc3cccc4ccncc34)c2C(=O)N1` [Compound I-274] returned an IC50 of 30 to 100 µM.
On the same count and under the same terms, the same measure for `O=C1Cc2cccc(Oc3cccc4ccccc34)c2C(=O)N1` [Compound I-275]: 10 to 30 µM.
Still for that read-out and setting: the same measure for `O=C1Cc2ccnc(Oc3ccccc3)c2C(=O)N1` [Compound I-276]: 30 to 100 µM; for `O=C1Cc2cccc(COc3ccccc3)c2C(=O)N1` [Compound I-277]: 10 to 30 µM.
Regarding `O=C1Cc2cccc(CNc3ccccc3)c2C(=O)N1` [Compound I-278], the IC50 is 10 to 30 µM.
For the compound `Cc1cccc(CN2C[C@@H]3C(=O)NC(=O)[C@@H]3C2)n1` [Compound I-292], the 50% inhibitory concentration (IC50) is 10 to 30 µM.
`O=C1NC(=O)[C@@H]2CN(Cc3ccc(-c4ccccc4)cc3)C[C@H]12` [Compound I-319] yielded an IC50 of 30 to 100 µM.

The target in another assay is CRBN-DDB1 (Homo sapiens, UniProt Q96SW2). Kind of assay: Fluorescence Polarization (FP) CRBN binding assay, probe TM-493 (FAM-BB-100). As to conditions: CRBN-DDB1, TM-493 probe, 60 min room temperature. Background: In fluorescence polarisation assays a small probe gives low polarisation when free and higher when bound to something large.
Chain of CRBN-DDB1 (Q96SW2 whole entry): as the sequence (Q96SW2 whole entry) above
Chain of CRBN-DDB1 (Q16531 whole entry partner): as the sequence (Q16531 whole entry partner) above
As to `O=C1NC(=O)c2c(Oc3cccnc3)cccc2C1=O` [Compound I-266], the IC50 was under 10 µM.
Same read-out and setting: the same measure for `CC(=O)NCc1cccc(Oc2cccc3c2C(=O)NC(=O)C3=O)c1` [Compound I-267]: under 10 µM; for `CC(=O)NCc1cccc(Oc2cccc3c2C(=O)NC(=O)C3)c1` [Compound I-268]: 10 to 30 µM.
The same measure, in the same setting: the same measure for `CC(C)(C)OC(=O)NCc1cccc(Oc2cccc3c2C(=O)NC(=O)C3)c1` [Compound I-273]: 10 to 30 µM; for `O=C1Cc2cccc(Oc3cccc4ccncc34)c2C(=O)N1` [Compound I-274]: 30 to 100 µM; for `O=C1Cc2cccc(Oc3cccc4ccccc34)c2C(=O)N1` [Compound I-275]: 10 to 30 µM.
Turning to `O=C1Cc2ccnc(Oc3ccccc3)c2C(=O)N1` [Compound I-276], the IC50 lay within 30 to 100 µM.
Take `O=C1Cc2cccc(COc3ccccc3)c2C(=O)N1` [Compound I-277]: the IC50 lay within 10 to 30 µM.
Still for that read-out and setting: the same measure for `O=C1Cc2cccc(CNc3ccccc3)c2C(=O)N1` [Compound I-278]: 10 to 30 µM; for `Cc1cccc(CN2C[C@@H]3C(=O)NC(=O)[C@@H]3C2)n1` [Compound I-292]: over 100 µM; for `O=C1NC(=O)[C@@H]2CN(Cc3ccc(-c4ccccc4)cc3)C[C@H]12` [Compound I-319]: over 100 µM.
